The target of this test is T1, hP2Y2R (Homo sapiens, UniProt P41231).
T1 construct: The 1321N1 cells expressing wild-type P2Y2R (P2Y2R-1321N1) were gifted by Dr. Elizabeth Rosethorne; expressed in transfected cells; host or cells: 1321N1 astrocytoma cells (P2Y2R-1321N1), gifted
The experiment in a line: Calcium-mobilization assay in P2Y2-1321N1 cells (antagonism of UTPγS). The test is classed as cell-based. The following applies: for hP2Y2 pKb / Kb: Gaddum equation; for hP2Y2R antagonist activity in words: calcium-mobilization assay.

Where [1] appears, read: Table 2, shift of UTPγS concentration–response curve by a single antagonist concentration, mean ± SEM.
[2] abbreviates: Table 2, shift of UTPγS concentration–response curve by a single antagonist concentration, mean ± SEM, read-out: hP2Y2 pKb (converted).
[3] abbreviates: Table 3, resolved enantiomers, shift of UTPγS curve, mean ± SEM, read-out: hP2Y2 pKb (converted).

Read-outs that look alike come from different tables or passages of the source.

Data on 13 compounds can be found in article PMC6026847, “Synthesis and Evaluation of the First Fluorescent Antagonists of the Human P2Y2 Receptor Based on AR-C118925” (Journal of Medicinal Chemistry, 2018).

T1 sequence (P41231 whole entry): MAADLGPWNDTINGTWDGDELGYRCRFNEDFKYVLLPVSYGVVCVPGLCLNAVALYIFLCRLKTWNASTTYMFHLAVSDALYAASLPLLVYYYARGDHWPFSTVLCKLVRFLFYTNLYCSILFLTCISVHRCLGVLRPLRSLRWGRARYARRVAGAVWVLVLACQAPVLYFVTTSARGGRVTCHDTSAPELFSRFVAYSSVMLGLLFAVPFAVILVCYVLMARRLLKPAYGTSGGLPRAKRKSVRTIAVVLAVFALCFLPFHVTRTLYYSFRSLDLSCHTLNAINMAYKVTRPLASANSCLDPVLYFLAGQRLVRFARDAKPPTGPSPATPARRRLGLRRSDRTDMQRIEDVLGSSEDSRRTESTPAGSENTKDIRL

Turning to `CN1CCN(c2nc3c(s2)C=Cc2cc(Cl)ccc2C3c2cn(C)c(=O)[nH]c2=S)CC1` (stereo not shown) [Example 11, 5-(7-Chloro-2-(4-methylpiperazin-1-yl)-4H-benzo[5,6]cyclohepta[1,2-d]thiazol-4-yl)-1-methyl-4-thioxo-3,4-dihydropyrimidin-2(1H)-one], the “hP2Y2R antagonist activity in words” value is “inactive”. For the same compound, the “hP2Y2 pKb” value under setting [1] is “IA (3) (IA = inactive; i.e., less than a 50% inhibition of the response to 0.1 μM UTPγS in the presence of a 10 μM concentration of the compound (n = 3))”.

As to `Cn1cc(C2c3ccc(Cl)cc3C=Cc3sc(N4CCOCC4)nc32)c(=S)[nH]c1=O` (stereo not shown) [Example 12, 5-(7-Chloro-2-morpholino-4H-benzo[5,6]cyclohepta[1,2-d]thiazol-4-yl)-1-methyl-4-thioxo-3,4-dihydropyrimidin-2(1H)-one], the “hP2Y2R antagonist activity in words” value is “inactive”. Under setting [1], the “hP2Y2 pKb” value was “IA (3) (IA = inactive; i.e., less than a 50% inhibition of the response to 0.1 μM UTPγS in the presence of a 10 μM concentration of the compound (n = 3))”.

As for `Cn1cc(C2c3ccc(Cl)cc3C=Cc3sc(N4CCCCC4)nc32)c(=S)[nH]c1=O` (stereo not shown) [Example 13, 5-(7-Chloro-2-(piperidin-1-yl)-4H-benzo[5,6]cyclohepta[1,2-d]thiazol-4-yl)-1-methyl-4-thioxo-3,4-dihydropyrimidin-2(1H)-one], the “hP2Y2R antagonist activity in words” value is “inactive”. In addition, under setting [1], the “hP2Y2 pKb” value is “IA (3) (IA = inactive; i.e., less than a 50% inhibition of the response to 0.1 μM UTPγS in the presence of a 10 μM concentration of the compound (n = 3))”.

As for `COCCCNc1nc2c(s1)C=Cc1cc(Cl)ccc1C2c1cn(C)c(=O)[nH]c1=S` (stereo not shown) [Example 15, 5-(7-Chloro-2-((3-methoxypropyl)amino)-4H-benzo[5,6]cyclohepta[1,2-d]thiazol-4-yl)-1-methyl-4-thioxo-3,4-dihydropyrimidin-2(1H)-one], the Kb under setting [2] is 0.275 µM.

For `CCOCCNc1nc2c(s1)C=Cc1cc(Cl)ccc1C2c1cn(C)c(=O)[nH]c1=S` (stereo not shown) [Example 16, 5-(7-Chloro-2-((2-ethoxyethyl)amino)-4H-benzo[5,6]cyclohepta[1,2-d]thiazol-4-yl)-1-methyl-4-thioxo-3,4-dihydropyrimidin-2(1H)-one], the Kb under setting [2] was 0.186 µM.

`CC(C)OCCNc1nc2c(s1)C=Cc1cc(Cl)ccc1C2c1cn(C)c(=O)[nH]c1=S` (stereo not shown) [Example 17, 5-(7-Chloro-2-((2-isopropoxyethyl)amino)-4H-benzo[5,6]cyclohepta[1,2-d]thiazol-4-yl)-1-methyl-4-thioxo-3,4-dihydropyrimidin-2(1H)-one]: the Kb under setting [2] is 0.324 µM.

In the case of `Cn1cc(C2c3ccc(Cl)cc3C=Cc3sc(NCCOc4ccccc4)nc32)c(=S)[nH]c1=O` (stereo not shown) [Example 18, 5-(7-Chloro-2-((2-phenoxyethyl)amino)-4H-benzo[5,6]cyclohepta[1,2-d]thiazol-4-yl)-1-methyl-4-thioxo-3,4-dihydropyrimidin-2(1H)-one], the “hP2Y2R antagonist activity in words” value is “inactive”. Also, under setting [1], the “hP2Y2 pKb” value was “IA (3) (IA = inactive; i.e., less than a 50% inhibition of the response to 0.1 μM UTPγS in the presence of a 10 μM concentration of the compound (n = 3))”.

Consider `Cn1cc(C2c3ccc(Cl)cc3C=Cc3sc(-c4ccccc4)nc32)c(=S)[nH]c1=O` (stereo not shown) [Example 19, 5-(7-Chloro-2-phenyl-4H-benzo[5,6]cyclohepta[1,2-d]thiazol-4-yl)-1-methyl-4-thioxo-3,4-dihydropyrimidin-2(1H)-one], for which the “hP2Y2R antagonist activity in words” value is “complete loss of affinity”. The “hP2Y2 pKb” value under setting [1] is “IA (3) (IA = inactive; i.e., less than a 50% inhibition of the response to 0.1 μM UTPγS in the presence of a 10 μM concentration of the compound (n = 3))”.

In the case of `COCCNc1nc2c(s1)C=Cc1cc(Cl)ccc1C2c1cn(C)c(=O)[nH]c1=S` (stereo not shown) [Example 20], the Kb under setting [3] is 0.234 µM.

Take `COCCNc1nc2c(s1)C=Cc1cc(Cl)ccc1C2c1cn(C)c(=O)[nH]c1=S` (stereo not shown) [Example 21]: under setting [3], the Kb was 1.51 µM.

Take `CCOCCNc1nc2c(s1)C=Cc1cc(Cl)ccc1C2c1cn(C)c(=O)[nH]c1=S` (stereo not shown) [Example 22]: where the note is “Table 3, resolved enantiomers, shift of UTPγS curve, mean ± SEM”, the “hP2Y2 pKb” value was “IA ^c (3) (IA = inactive; i.e., less than a 50% inhibition of the response to 0.1 μM UTPγS in the presence of a 10 μM concentration of the compound (n = 3))”. Moreover, the Kb (Table 7, shift of agonist dose–response curve by a single antagonist concentration, mean ± SEM, read-out: pKb Ca2+ mobilization (converted)) is > 10 µM.

`CCOCCNc1nc2c(s1)C=Cc1cc(Cl)ccc1C2c1cn(C)c(=O)[nH]c1=S` (stereo not shown) [Example 23]: the Kb under setting [3] is 0.166 µM.

In the case of `COCCNc1nc2c(s1)C=Cc1cc(Cl)ccc1C2c1cn(Cc2nc(C(=O)Nc3nnn[nH]3)cs2)c(=O)[nH]c1=S` (stereo not shown) [Example 24, 2-((5-(7-Chloro-2-((2-methoxyethyl)amino)-4H-benzo[5,6]cyclohepta[1,2-d]thiazol-4-yl)-2-oxo-4-thioxo-3,4-dihydropyrimidin-1(2H)-yl)methyl)-N-(1H-tetrazol-5-yl)thiazole-4-carboxamide], the Kd (quoted in text for nonfluorescent antagonists, mean ± SEM, read-out: hP2Y2R affinity pKd (converted)) is 0.0955 µM.
